Assay results taken from US4740233A, “Substituted 1,2,4-triazolo[1,5-a]-pyrimidine-2-sulfonamides and compositions and methods of controlling undesired vegetation and suppressing the nitrification of ammonium nitrogen in soil” (The Dow Chemical Company, priority 1986, dated 1988).

Key:
annual morning glory = assay: Postemergent control of plant species; format: in vivo, Ipomoea spp.; conditions: Ipomoea, post-emergence, 336 h, read-out: percent postemergent control
In short: (§1)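 Growth reduction versus untreated plants of each species, scored about two weeks after spraying, defines control here. Test emulsions contained compound in acetone diluted 1:1 into water bearing 0.1% surfactant; plants were treated at the 2-4 leaf stage in the greenhouse.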

[1] = system: nitrification of ammonium nitrogen; assay: Suppression of nitrification of ammonium nitrogen in soil; conditions: 27° C.
In short: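 Value is % NH4-N remaining after a two-week, 27° C incubation of treated soil held at 1/3 bar tension moisture. Nitrate was measured with an ion-selective electrode after extraction with ammonium sulfate solution and 10 min shaking.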

rice = assay: Control of aquatic plant species (paddy water); format: in vivo, Oryza sativa; conditions: Oryza sativa, 216 h, nine days, read-out: Percent control; for pest or weed control at 1000 g/ha: 1.0 Kg/Ha
In short: (§2)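 Percent control is scored nine days after treatment. Plants go into about 2 inches of soil at the 1-2 inch stage and are flooded to about 1 inch, then test compound in acetone concentrate is injected into the standing water at a volume chosen for the desired concentration.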

yellow nutsedge [2] = assay: Control of aquatic plant species (paddy water); format: in vivo, Cyperus esculentus; conditions: Cyperus, 216 h, nine days, read-out: Percent control; for pest or weed control at 1000 g/ha: 1.0 Kg/Ha
In short: as §2

crabgrass = assay: Postemergent control of plant species; format: in vivo, Digitaria spp.; conditions: Digitaria sanguinalis, post-emergence, 336 h, read-out: percent postemergent control
In short: as §1

yellow nutsedge [3] = assay: Preemergent control of plant species; format: in vivo, Cyperus esculentus; conditions: Cyperus, pre-emergence, 336 h; 0.25 lb/acre; read-out: percent preemergent control
In short: (§3)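 Seeds planted in good agricultural soil beds; active ingredients then applied to the bed surface as aqueous emulsion at listed rates. Beds kept two weeks in greenhouse with watering. Control scored against water-treated beds.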

sorghum = assay: Preemergent control of plant species; format: in vivo, Sorghum vulgare; conditions: Sorghum, pre-emergence, 336 h; 0.25 lb/acre; read-out: percent preemergent control
In short: as §3

wheat = assay: Postemergent control of plant species; format: in vivo, Triticum aestivum; conditions: Triticum aestivum, post-emergence, 336 h, read-out: percent postemergent control
In short: as §1

sprangletop = assay: Control of aquatic plant species (paddy water); format: in vivo, Leptochloa filiformis; conditions: Leptochloa filiformis, 216 h, nine days, read-out: Percent control; for pest or weed control at 1000 g/ha: 1.0 Kg/Ha
In short: as §2

barnyardgrass = assay: Control of aquatic plant species (paddy water); format: in vivo, Echinochloa crusgalli; conditions: Echinochloa crus-galli, 216 h, nine days, read-out: Percent control; for pest or weed control at 1000 g/ha: 1.0 Kg/Ha
Method: In testing for such utility, the plant species to be tested were transplanted into 16 oz. containers into about 2 inches of soil when they were in the 1-2 inch stage and then flooded to a depth of about 1 inch. An acetone concentrate of the chemical to be tested was then injected into the paddy water, the volume injected being varied as desired to provide the desired concentration. Percent control was evaluated nine days after application.

cotton = assay: Postemergent control of plant species; format: in vivo, Gossypium spp.; conditions: Gossypium hirsutum, post-emergence, 336 h, read-out: percent postemergent control
In short: as §1

jimsonweed = assay: Postemergent control of plant species; format: in vivo, Datura stramonium; conditions: Datura stramonium, post-emergence, 336 h, read-out: percent postemergent control
In short: as §1

sugar beet = assay: Postemergent control of plant species; format: in vivo, Beta saccharifera; conditions: Beta vulgaris, post-emergence, 336 h, read-out: percent postemergent control
In short: as §1

yellow foxtail = assay: Preemergent control of plant species; format: in vivo, Setaria lutescens; conditions: Setaria, pre-emergence, 336 h; 0.25 lb/acre; read-out: percent preemergent control
In short: as §3

[4] = system: annual sugar beet variety (SLC03); assay: Plant growth regulator activity, postemergence; format: in vivo; conditions: Beta vulgaris, post-emergence, 672 h, 4 weeks after spraying; read-out: Bolting Inhibition (postemergence), concentration with observed effect
From the text: Using a regular biennial variety, even a bolting-susceptible variety would require a cold treatment of around 10-16 weeks plus a hormone treatement in conjunction with specific light intensities. Thus, for a screening organism, we selected one which would consistently produce bolting on a regular schedule. The screen is run with an annual sugar beet variety (SLC03) provided by Dr. Richard J. Hecker, Fort Collins, Colo. This variety is an inbred which bolts in the 6- to 8-leaf stage without any need for vernalization. This allows the screen to be run entirely in the greenhouse with all 110 chemical compounds tested on one tray. The sugarbeets are grown in 3×3 inch square pots in a greenhouse sandy loam potting mix. The sugarbeets are sprayed with test compounds when they are 2 to 3 weeks old (2 true leaves). The compounds are dissolved in acetone and diluted with water containing Tween 20 as a wetting agent. The concentration of acetone in the final spray is 20% and the concentration of Tween 20 is 0.05 percent. The plants are examined for the appearance of a bolt 4 weeks after spraying.

| Structure (SMILES) | pest or weed control at 500 ppm (annual morning glory) [%] | % NH4-N Remaining After 2 Weeks Incubation ([1]; 0.01 ppm) [%] | % NH4-N Remaining After 2 Weeks Incubation ([1]; 0.1 ppm) [%] | % NH4-N Remaining After 2 Weeks Incubation ([1]; 1 ppm) [%] | % NH4-N Remaining After 2 Weeks Incubation ([1]; 10 ppm) [%] | pest or weed control at 1000 g/ha (rice) [%] | pest or weed control at 1000 g/ha (yellow nutsedge [2]) [%] | pest or weed control at 500 ppm (crabgrass) [%] | pest or weed control at 280.212 g/ha (yellow nutsedge [3]) [%] | plant injury at 280.212 g/ha (sorghum) [%] | plant injury at 500 ppm (wheat) [%] | pest or weed control at 1000 g/ha (sprangletop) [%] | pest or weed control at 1000 g/ha (barnyardgrass) [%] | plant injury at 500 ppm (cotton) [%] | pest or weed control at 500 ppm (jimsonweed) [%] | plant injury at 500 ppm (sugar beet) [%] | % NH4-N Remaining After 2 Weeks Incubation ([1]; 0.06 ppm) [%] | % NH4-N Remaining After 2 Weeks Incubation ([1]; 0.125 ppm) [%] | % NH4-N Remaining After 2 Weeks Incubation ([1]; 0.25 ppm) [%] | pest or weed control at 280.212 g/ha (yellow foxtail) [%] | also measured |
| --- | --- | --- | --- | --- | --- | --- | --- | --- | --- | --- | --- | --- | --- | --- | --- | --- | --- | --- | --- | --- | --- |
| Cc1cc(C)n2nc(S(=O)(=O)Nc3ccccc3I)nc2n1 [Compound 6] | 80 | 15 | 55 | 78 | 87 | 93 | 90 | 20 | 50 | 50 | 0 | 20 | 99 | 60 | 30 | 90 | – | – | – | – | – |
| Cc1cc(C)n2nc(S(=O)(=O)Nc3ccccc3F)nc2n1 [Compound 8] | 70 | – | – | 67 | – | 97 | 93 | 10 | 75 | – | 10 | 0 | 99 | – | 90 | 95 | 4 | 23 | 44 | 60 | % NH4-N Remaining After 2 Weeks Incubation ([1]; 0.5 ppm): 59%; minimal effective concentration [4]: 50 µg/mL |
| Cc1cc(C)n2nc(S(=O)(=O)Nc3ccccc3[N+](=O)[O-])nc2n1 [Compound 12] | 100 | – | – | 87 | – | 70 | 95 | 25 | 50 | – | 0 | 0 | 97 | – | 70 | 95 | 40 | 70 | 74 | 0 | % NH4-N Remaining After 2 Weeks Incubation ([1]; 0.5 ppm): 83% |
| COC(=O)c1cccc(F)c1NS(=O)(=O)c1nc2nc(C)cc(C)n2n1 [Compound 26] | 90 | – | – | 79 | – | – | – | 90 | 100 | – | 30 | – | – | 100 | 100 | 100 | 37 | 45 | 65 | 100 | % NH4-N Remaining After 2 Weeks Incubation ([1]; 0.5 ppm): 73%; pest or weed control at 125 g/ha (rice; 0.125 Kg/Ha): 93%; pest or weed control at 125 g/ha (yellow nutsedge [2]; 0.125 Kg/Ha): 95%; pest or weed control at 125 g/ha (sprangletop; 0.125 Kg/Ha): 0%; pest or weed control at 125 g/ha (barnyardgrass; 0.125 Kg/Ha): 90% |
| CCc1cccc(CC)c1NS(=O)(=O)c1nc2nc(C)cc(C)n2n1 [Compound 33] | 60 | 8 | 42 | 77 | 88 | 97 | 97 | 0 | – | 0 | 0 | 90 | 97 | 50 | 40 | 40 | – | – | – | 0 | – |
| Cc1cc(C)n2nc(S(=O)(=O)Nc3ccc(Cl)cc3C(F)(F)F)nc2n1 [Compound 34] | 75 | 11 | 51 | 78 | 90 | – | – | 0 | 70 | 90 | 0 | – | – | 70 | 90 | 100 | – | – | – | 0 | – |
| CC(=O)N(c1c(Cl)cccc1Cl)S(=O)(=O)c1nc2nc(C)cc(C)n2n1 [Compound 262] | 100 | – | – | 75 | – | – | – | 95 | 100 | – | 10 | – | – | 100 | 100 | 100 | 28 | – | 49 | 95 | % NH4-N Remaining After 2 Weeks Incubation ([1]; 4 ppm): 89% |
